These results are taken from the NIST ThermoML archive (doi:10.1021/je101180r).

As usually defined, the vapor or sublimation pressure is the pressure of vapour in equilibrium with the condensed phase.

For this data set the following is noted: Liquid, Ebulliometric method (Recirculating still).

Molecules are shown by their SMILES. ± gives the expanded uncertainty stated by the source.

For `Cc1cccnc1N` [2-amino-3-methylpyridine], the “vapor or sublimation pressure” value by setting is: (402.57 K) 5.158 ± 0.11 kPa; (413.74 K) 8.041 ± 0.18 kPa.

In the case of `CN(C)c1ccccc1` [N,N-dimethylaniline], the “vapor or sublimation pressure” value by setting is: (373.7 K) 5.158 ± 0.11 kPa; (384.96 K) 8.041 ± 0.18 kPa.
